Laboratory results reported in patent US20110152099A1, “BIOACTIVE COMPOUNDS OF ASCOPHYLLUM NODOSUM AND THEIR USE FOR ALLEVIATING SALT-INDUCED STRESS IN PLANTS” (priority 2008, published 2011).

Test system: plants under salt stress
Test: Root length under salt stress
Format: in vivo
Details: compared to +Na untreated plants
Description: The code numbers in FIG. 18 refer to different organic extracts.

**Q.** `C/C=C(/CCC(C)C1CCC2C3CC=C4CC(O)CCC4(C)C3CCC12C)C(C)C` (stereo not shown) [fucosterol, 24-ethylidene cholesterol] was tested. Which root length did it give?
**A.** The root length was “longer root length”.
